According to patent publication US20230404981A1, “[…] ACTIVE COMPOUND FORMULATIONS” (priority 2020, published 2023):

Assay: in vivo
Settings: Sprague Dawley, rat; for AUC(0-t) / Cmax / Tmax: im
Procedure: An in vivo pharmacology study was completed in Sprague Dawley rats over 14 days, to determine the drug release kinetics of 50, 100, or 200 mg/kg doses of niclosamide administered as intramuscular injections of an aqueous dispersion of niclosamide nanoparticles.
Each animal received two 0.2 mL injections, one in each thigh, of one of the 25, 50, or 100 mg/kg of niclosamide dispersions for a total dose of 50, 100, or 200 mg/kg of niclosamide in each animal.
Blood samples were taken via tail vein bleed 1, 3, 6 and 24 hours post dose followed by bleeds at day 3, 4, 7 and 14. Niclosamide concentrations from the plasma samples were quantified utilising a previously validated liquid chromatography mass spectrometry (LCMS) method.

concentration at 24 h: 140000 ng/g | AUC(0-t) (50 mg/kg): 24800 ng·h/mL | Cmax (50 mg/kg): 1410 ng/mL | Tmax (50 mg/kg): 2.5 h | AUC(0-t) (100 mg/kg): 47500 ng·h/mL | Cmax (100 mg/kg): 2040 ng/mL | Tmax (100 mg/kg): 2 h | AUC(0-t) (200 mg/kg): 58300 ng·h/mL | Cmax (200 mg/kg): 3130 ng/mL | Tmax (200 mg/kg): 3 h
Structure (SMILES): O=C(Nc1ccc([N+](=O)[O-])cc1Cl)c1cc(Cl)ccc1O [niclosamide, 5-chloro-N-(2-chloro-4-nitrophenyl)-2-hydroxybenzamide]
